What was measured:
Type in all cases: binding
F2R = biological target: T1, F2R (Homo sapiens, UniProt P25116); test: NanoBRET screen HiBiT-F2R in HEK293
T1 construct: purchased Promega (in-house HiBiT-GPCR construct library, NanoBRET)
T1 sequence (P25116 22-425): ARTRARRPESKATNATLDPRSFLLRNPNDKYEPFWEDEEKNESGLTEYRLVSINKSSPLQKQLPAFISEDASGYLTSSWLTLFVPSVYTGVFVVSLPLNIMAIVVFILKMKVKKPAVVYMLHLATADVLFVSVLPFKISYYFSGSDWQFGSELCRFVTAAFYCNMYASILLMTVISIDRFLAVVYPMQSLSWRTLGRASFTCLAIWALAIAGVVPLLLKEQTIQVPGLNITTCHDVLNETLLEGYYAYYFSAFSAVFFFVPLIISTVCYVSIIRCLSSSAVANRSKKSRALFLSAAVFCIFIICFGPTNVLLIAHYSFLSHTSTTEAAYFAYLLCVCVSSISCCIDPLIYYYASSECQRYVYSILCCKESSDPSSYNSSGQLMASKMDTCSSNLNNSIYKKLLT
Experimental: (§1) Each tracer candidate was screened across the entire library of HiBiT-GPCR constructs using NanoBRET as the detection modality. As depicted in Figure 4A, the specificity of interactions was evaluated through decrease in BRET due to competitive displacement of a bound tracer by excess parental compound. Each tracer was analyzed for binding to each HiBiT-GPCR fusion in the absence and in the presence of competing parental compound. Briefly, HEK293 cells were transfected with HiBiT-GPCR constructs diluted into promoterless DNA to reduce expression and maximize translocation to the cell surface. Each tracer candidate was then screened at concentrations of 1 μM and 0.1 μM across cells expressing these fusions. Cells were treated for 1.5 h with tracer either alone or in the presence of 20 μM competing parental compound (i.e., control). BRET was measured upon addition of purified LgBiT and subsequent complementation with HiBiT genetically fused to a GPCR. The specificity of interactions was assessed through a decrease in BRET signal due to competitive displacement of the bound tracer. To further gauge the robustness of these interactions, the fold response over the control (i.e., BRETtracer/BRETcontrol) was calculated. We chose a 1.5-fold response, which translates to ≥7-fold signal over noise as the minimal threshold required to score an interaction as positive. […]. Below we highlight the screening results obtained for our exemplary fluorescent tracers based on Clozapine, Amitriptyline and AZD1283.
(§2) HiBiT-GPCR DNA constructs were diluted in 10 mM Tris pH 8 to a final concentration of 0.01 μg/μL, arrayed in 96-well plates and stored at −20 °C. For transfection, HEK293 cells were suspended in Opti-MEM (without phenol red) supplemented with 2% fetal bovine serum (Seradigm) and 100 units/mL penicillin–streptomycin (Gibco) at a final concentration of 220,000 cells/mL and dispensed into white 96-well plates at 90 μL/well. Subsequent transfections and screens were carried using an Agilent Bravo Automated Liquid Handling Platform. First, the 96-well HiBiT DNA arrays were diluted 25-fold in Opti-MEM (without serum or phenol red) to a final concentration of 0.0004 μg/μL and 20 μL of the diluted DNAs were transferred into new 96-well plates. Next, promoterless carrier DNA (1 μg/μL) was diluted 25-fold (0.04 μg/μL) and then dispensed into the diluted arrays at 20 μL/well. Following brief mixing, Viafect transfection reagent (Promega) diluted 16-fold into Opti-MEM was dispensed into the plates at 40 μL/well. After mixing by pipetting, plates were incubated for 10 min on the pipetting station deck. The DNA-transfection reagent complexes were then added to plates containing cells. To facilitate the screen, 10 μL of DNA-transfection reagent complexes were added in duplicates to the top 4 and bottom 4 rows, resulting in two identical 48-well arrays per plate. Plates with transfected cells were incubated for 18–20 h at 37 °C/5% CO2. A screen of each tracer across the entire library using two different concentrations requires duplicate plates of transfected cells. Depending on the number of tracers being screened, transfections can be scaled up using the same ratios. The next day, for each tracer, four 20× screening solutions in tracer dilution buffer (Promega) were prepared: two duplicates at final concentration of 20 μM and two duplicates at a final concentration of 2 μM. A competing unmodified compound was added to one of each duplicate at a final concentration of 400 μM. The four resulting solutions were diluted 4-fold in Opti-MEM without serum or phenol red to generate 5× solutions (5 µM and 0.5 µM tracer +/− 100 μM competing compound). To screen the library, a BioTek MultiFlo FX liquid dispenser was used to dispense 22.5 µL of tracer solution to the top 4 rows and 22.5 µL tracer + competing compound solution to the 4 bottom rows. Plates were briefly mixed on an orbital shaker and incubated for 1.5 h at room temperature. […]

VIPR2 = biological target: T2, VIPR2 (Homo sapiens, UniProt P41587); test: NanoBRET screen HiBiT-VIPR2 in HEK293
T2 construct: purchased Promega (in-house HiBiT-GPCR construct library, NanoBRET)
T2 sequence (P41587 24-438): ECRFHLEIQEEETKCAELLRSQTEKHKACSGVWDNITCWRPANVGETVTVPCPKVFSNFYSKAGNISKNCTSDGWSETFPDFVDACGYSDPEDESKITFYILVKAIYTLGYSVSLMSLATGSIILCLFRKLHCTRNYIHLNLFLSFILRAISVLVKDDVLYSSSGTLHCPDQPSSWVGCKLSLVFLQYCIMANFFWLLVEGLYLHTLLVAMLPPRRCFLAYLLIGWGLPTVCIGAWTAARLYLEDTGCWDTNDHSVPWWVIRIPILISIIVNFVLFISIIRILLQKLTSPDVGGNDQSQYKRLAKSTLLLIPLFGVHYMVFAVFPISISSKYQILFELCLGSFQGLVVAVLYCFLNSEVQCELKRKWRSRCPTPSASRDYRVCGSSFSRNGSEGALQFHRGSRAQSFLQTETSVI
Experimental: as §1, §2

BDKRB2 = biological target: T3, BDKRB2 (Homo sapiens, UniProt P30411); test: NanoBRET screen HiBiT-BDKRB2 in HEK293
T3 construct: purchased Promega (in-house HiBiT-GPCR construct library, NanoBRET)
T3 sequence (P30411 1-391): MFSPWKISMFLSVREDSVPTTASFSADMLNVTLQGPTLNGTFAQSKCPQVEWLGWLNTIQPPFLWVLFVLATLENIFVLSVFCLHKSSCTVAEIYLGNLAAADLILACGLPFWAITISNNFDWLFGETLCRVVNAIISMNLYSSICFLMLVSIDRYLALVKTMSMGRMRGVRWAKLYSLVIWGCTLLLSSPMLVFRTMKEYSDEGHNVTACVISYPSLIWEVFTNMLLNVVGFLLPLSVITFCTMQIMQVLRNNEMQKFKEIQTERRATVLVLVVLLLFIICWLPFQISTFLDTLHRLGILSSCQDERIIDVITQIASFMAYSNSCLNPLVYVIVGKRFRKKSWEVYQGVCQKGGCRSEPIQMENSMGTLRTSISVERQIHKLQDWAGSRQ
Experimental: as §1, §2

PTGFR = biological target: T4, PTGFR (Homo sapiens, UniProt P43088); test: NanoBRET screen HiBiT-PTGFR in HEK293
T4 construct: purchased Promega (in-house HiBiT-GPCR construct library, NanoBRET)
Experimental: as §1, §2

[1] = tracer at 0.1μM, listed as amitriptyline-b-2-NB590
[2] = tracer at 1μM, listed as amitriptyline-b-2-NB590

T4 sequence (P43088 whole entry): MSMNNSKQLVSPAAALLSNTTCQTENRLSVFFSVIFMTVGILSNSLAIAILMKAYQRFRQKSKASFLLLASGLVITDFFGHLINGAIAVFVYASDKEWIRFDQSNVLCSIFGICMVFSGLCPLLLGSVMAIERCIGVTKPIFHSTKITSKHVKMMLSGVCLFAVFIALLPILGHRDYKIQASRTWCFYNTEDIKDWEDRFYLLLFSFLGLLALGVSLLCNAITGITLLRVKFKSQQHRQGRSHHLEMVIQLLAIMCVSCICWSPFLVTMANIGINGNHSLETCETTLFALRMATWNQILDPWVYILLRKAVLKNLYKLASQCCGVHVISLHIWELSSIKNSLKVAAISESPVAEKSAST

SMILES	NanoBRET Fold Response (F2R; F2R, tracer 0.1μM)	NanoBRET Fold Response (F2R; F2R, tracer 1μM)	NanoBRET Fold Response (VIPR2; VIPR2, tracer 0.1μM)	NanoBRET Fold Response (VIPR2; VIPR2, tracer 1μM)	NanoBRET Fold Response (BDKRB2; BDKRB2, tracer 0.1μM)	NanoBRET Fold Response (BDKRB2; BDKRB2, tracer 1μM)	NanoBRET Fold Response (PTGFR; PTGFR, tracer 0.1μM)	NanoBRET Fold Response (PTGFR; PTGFR, tracer 1μM)	other results
Cc1nc2n(c(=O)c1CCN1CCC(c3noc4cc(F)ccc34)CC1)CCCC2OC(=O)NCCOCCOCCOCCOCCNC(=O)CCc1ccc2n1[B-](F)(F)[N+]1=C(c3ccc[nH]3)C=CC1=C2 (stereo not drawn) [Risperidone-2-NB590]	0.97	0.78	1.03	0.91	0.92	0.96	1.00	1.02	–
CCOC(=O)c1cc(C#N)c(N2CCC(C(=O)NS(=O)(=O)Cc3ccccc3/C=C/C(=O)NCCNC(=O)CCc3ccc4n3[B-](F)(F)[N+]3=C(c5ccc[nH]5)C=CC3=C4)CC2)nc1C [AZD1283-1-NB590]	–	–	–	–	–	–	–	–	NanoBRET Fold Response (F2R; F2R, 0.1μM): 1.01; NanoBRET Fold Response (F2R; F2R, 1μM): 1.01; NanoBRET Fold Response (VIPR2; VIPR2, 0.1μM): 1.19; NanoBRET Fold Response (VIPR2; VIPR2, 1μM): 1.15; NanoBRET Fold Response (BDKRB2; BDKRB2, 0.1μM): 1.06; NanoBRET Fold Response (BDKRB2; BDKRB2, 1μM): 1.04; NanoBRET Fold Response (PTGFR; PTGFR, 0.1μM): 1.02; NanoBRET Fold Response (PTGFR; PTGFR, 1μM): 1.02
Cc1cc2c(s1)Nc1ccccc1N=C2N1CCN(CCCNC(=O)CCOCCOCCOCCOCCNC(=O)CCc2ccc3n2[B-](F)(F)[N+]2=C(c4ccc[nH]4)C=CC2=C3)CC1 [Olanzapine-a-2-NB590]	1.01	0.90	1.00	1.05	0.97	1.06	1.03	1.07	–
COc1ccccc1N1CCN(CCCCN2C(=O)c3ccc(CNC(=O)CCOCCNC(=O)c4ccc(CNC(=O)CCc5ccc6n5[B-](F)(F)[N+]5=C(c7ccc[nH]7)C=CC5=C6)cc4)cc3C2=O)CC1 [NAN-190-3-NB590]	0.97	1.11	0.98	0.87	0.97	0.88	0.96	0.90	–
CC(C)N(CC[C@H](c1ccccc1)c1cc(CCNC(=O)CCOCCOCCOCCOCCNC(=O)CCc2ccc3n2[B-](F)(F)[N+]2=C(c4ccc[nH]4)C=CC2=C3)ccc1O)C(C)C [Tolterodine-2-NB590]	1.20	1.03	0.98	1.04	0.96	0.95	0.84	0.94	–
CN(C)CCC=C1c2ccccc2CCc2ccc(C(=O)NCCNC(=O)CCOCCOCCOCCOCCNC(=O)CCc3ccc4n3[B-](F)(F)[N+]3=C(c5ccc[nH]5)C=CC3=C4)cc21 [Amitriptyline-b-2-NB590]	–	–	–	–	–	–	–	–	NanoBRET Fold Response (F2R; [1]): 0.76; NanoBRET Fold Response (F2R; [2]): 0.97; NanoBRET Fold Response (VIPR2; [1]): 1.31; NanoBRET Fold Response (VIPR2; [2]): 1.31; NanoBRET Fold Response (BDKRB2; [1]): 1.05; NanoBRET Fold Response (BDKRB2; [2]): 1.12; NanoBRET Fold Response (PTGFR; tracer at 0.1μM): 1.01; NanoBRET Fold Response (PTGFR; tracer at 1μM): 1.00
O=C(CCOCCOCCOCCOCCNC(=O)CCc1ccc2n1[B-](F)(F)[N+]1=C(c3ccc[nH]3)C=CC1=C2)NCCCN1CCN(C2=Nc3ccccc3Oc3ccc(Cl)cc32)CC1 [Loxapine-a-2-NB590]	0.97	1.05	1.15	0.83	1.08	1.16	1.03	1.02	–
CN(C)CCC=C1c2ccccc2CCc2ccc(C(=O)NCCNC(=O)CCOCCOCCOCCOCCNC(=O)CCc3ccc4n3[B-](F)(F)[N+]3=C(c5ccc[nH]5)C=CC3=C4)cc21 [Amitriptyline-a-2-NB590]	–	–	–	–	–	–	–	–	NanoBRET Fold Response (F2R; tracer at 0.1μM): 0.94; NanoBRET Fold Response (F2R; tracer at 1μM): 0.98; NanoBRET Fold Response (VIPR2; tracer at 0.1μM): 0.95; NanoBRET Fold Response (VIPR2; tracer at 1μM): 1.02; NanoBRET Fold Response (BDKRB2; tracer at 0.1μM): 1.01; NanoBRET Fold Response (BDKRB2; tracer at 1μM): 1.04
CN(CCC=C1c2ccccc2CCc2ccccc21)C(=O)CCOCCOCCOCCOCCNC(=O)CCc1ccc2n1[B-](F)(F)[N+]1=C(c3ccc[nH]3)C=CC1=C2 [Amitriptyline-e-2-NB590]	–	–	–	–	–	–	–	–	NanoBRET Fold Response (VIPR2; tracer at 1μM): 1.06

— paper PMC8151276, “An Integrated Approach toward NanoBRET Tracers for Analysis of GPCR Ligand Engagement” (Molecules, 2021)
